Molecules are shown by their SMILES.

This data set in a line: from Savola, J.; Ruskoaho, H.; Salonen, J.; Puurunen, J.; Karjalainen, A.; Kurkela, K.; Karki, N. (1988). Cardiovascular and sedative alpha-adrenoceptor effects of detomidine-like arylalkylimidazoles and …. The note with it: pH 7.4.
In the case of `Cc1cccc(Cc2c[nH]cn2)c1C`, the logD turned out to be 2.5. To `Cc1cccc(C)c1CCCCc1c[nH]cn1` belongs 3.3. To `Cc1cccc(C)c1CCCc1c[nH]cn1` belongs 2.87; to `Cc1ccc(Cc2c[nH]cn2)c(C)c1`, 2.52. In the case of `Cc1cccc(Cc2c[nH]cn2)c1` it was 2.21. Regarding `Cc1cccc(C)c1CCc1ncc[nH]1`, the logD amounted to 2.2.

`Cc1cccc(C)c1/C=C/c1c[nH]cn1` showed a log distribution coefficient (logD) of 3.35.

The compound `Cc1ccccc1Cc1c[nH]cn1` gave a log distribution coefficient (logD) of 2.13. In the case of `Cc1cccc(C)c1Cc1cnc[nH]1` it was 2.54; in that of `Cc1ccc(Cc2c[nH]cn2)cc1C`, 2.54; in that of `Cc1cccc(C)c1Cc1ccccn1`, 3.48. To `Cc1cccc(C)c1-c1c[nH]cn1` belongs 2.38; to `Cc1ccc(C)c(Cc2c[nH]cn2)c1`, 2.54; to `Cc1cccc(C)c1CCn1ccnc1`, 2.51. To `Cc1cccc(C)c1CCc1c[nH]cn1` belongs 2.73; to `Cc1cc(C)cc(Cc2c[nH]cn2)c1`, 2.34.

What is called logD is the decadic logarithm of the distribution of all forms, ionised or not, between an organic phase and buffer at a given pH. Read a low logD as lower lipophilicity.

The values above are taken from the SangsterLogP compilation.
